Measured values reported in patent publication US9238602B1, “Process for the preparation of cis-2,2,4,4-tetramethylcyclobutane-1,3-diol” (Eastman Chemical Company, priority 2014, dated 2016).

Assay: cis/trans 2,2,4,4-tetramethylcyclobutane-1,3-diol solubility ratio (cis isomer solubility limit divided by trans isomer solubility limit)
Format: physicochemical
Protocol: The definition of cis/trans 2,2,4,4-tetramethylcyclobutane-1,3-diol solubility ratio is also known to one of ordinary skill in the art; in one embodiment, the cis/trans 2,2,4,4-tetramethylcyclobutane-1,3-diol solubility ratio can be defined as the ratio of the cis isomer solubility limit divided by the trans isomer solubility limit at a given temperature for a given solvent or solvents. For example, the cis/trans solubility ratio in water at 80° C. is about 1.0. For MIBC, the cis/trans solubility ratio at 80° C. is about 0.74.

For `CC1(C)C(O)C(C)(C)C1O` (centres unmarked) [2,2,4,4-tetramethylcyclobutane-1,3-diol], the cis/trans solubility ratio (in MIBC (methyl isobutyl carbinol) at 80° C.) was “about 0.74” and the cis/trans solubility ratio (in water at 80° C.) was “about 1.0”.
